This is an account of results in article PMC8869358, “High-Throughput Chemical Screening and Structure-Based Models to Predict hERG Inhibition” (Biology, 2022).

Series [1] addresses T1, hERG (Homo sapiens, UniProt Q12809). Put plainly: Tox21 qHTS FluxOR thallium flux assay in hERG-U2OS cells. The method, then:
The hERG-U2OS cell line was purchased from Codex BioSolution, Inc. (Gaithersburg, MD, USA). All the cell culture reagents were obtained from Invitrogen (Life Technologies, Madison, WI, USA). The hERG-U2OS cells were cultured in DMEM with Glutamax containing 10% fetal bovine serum (FBS), 1% of Non-Essential AA (NEAA), 50 U/mL penicillin, 50 μg/mL streptomycin, and 1 µg/mL puromycin. The cells were maintained at 37 °C under a humidified atmosphere and 5% CO2.
A FluxORTM thallium flux assay was performed in hERG-U2OS cells with stable hERG expression, as previously described. In this assay, thallium ions are used as surrogates for K^+ ions to monitor the activity of the hERG K^+ channel. […] The hERG-U2OS cells suspended in culture medium were dispensed at 1000 cells/well/3μL into 1536-well, black wall/clear-bottom plates using a Multidrop Combi dispenser (Thermo Fisher, Waltham, MA, USA). After the assay plates were incubated at 37 °C overnight, 3 μL of Loading Buffer provided from FluxOR II Potassium Ion Channel Assay Kit (Life Technologies, Carlsbad, CA, USA) was added to each assay well. The assay plates were then incubated at room temperature in the dark for 1 h, followed by the addition of 23 nL of compound, dissolved in DMSO, DMSO only, or positive control, to the assay plate. Each compound was tested at 15 concentrations in three independent runs.
Multiple criteria were used to select each small molecule, including properties allowing for high-throughput screens (HTS) (molecular weight, volatility, solubility, logP), commercial availability, possible and definite environmental hazards, or exposure concerns, and cost. A diverse group of 88 compounds was selected to be used as an internal control and plated in duplicate on each library plate to perform reproducibility analysis as well as to determine positional plate effects. Each compound in the Tox21 10K compound library was subjected to analytical chemistry quality control (QC), which provides information on the purity and identity of each sample. […] The compounds were serially diluted in Dimethylsulfoxide (DMSO) to 15 concentrations in 1536-well plates, covering a concentration range of up to four orders of magnitude.
Many of these chemicals were sourced independently by NTP/EPA/NCATS from different vendors or the same vendor but different batches; these chemicals have been tested in replicates. Compound concentration-response data analysis was performed as previously described. […] The dataset was then corrected using the DMSO-only compound plates at the beginning and end of the compound plate stack by applying an in-house pattern correction algorithm. The half-maximum inhibition values (IC50) for each compound and maximum response (efficacy) values were obtained by fitting the concentration-response curves of each compound to a four-parameter Hill equation [24]. […] To identify chemicals with the potential to inhibit the hERG channel, we selected only antagonist chemicals with curve rank −5 to −9.

For series [2], the target named is T1, hERG. Kind of series: in vitro. The conditions noted are these: (-LOG10(IC50), µM).
Series [3] has as its target T1, hERG. Put plainly: cell-based. The following applies: (-LOG10(IC50), µM).
Where [4] appears, read: hERG-U2OS cells, thallium flux, qHTS, result in words.
Setting [5] is: (-LOG10(IC50), µM), Supplementary File S2, Tox21 chemical library.
Setting [6] is: IC50, hERG-U2OS cells, thallium flux, qHTS, 15 concentrations, three runs.

SMILES strings stand for the structures. Where a name gives a salt, the structure may show the parent alone. Read-outs that look alike come from different tables or passages of the source.

T1 sequence (Q12809 whole entry): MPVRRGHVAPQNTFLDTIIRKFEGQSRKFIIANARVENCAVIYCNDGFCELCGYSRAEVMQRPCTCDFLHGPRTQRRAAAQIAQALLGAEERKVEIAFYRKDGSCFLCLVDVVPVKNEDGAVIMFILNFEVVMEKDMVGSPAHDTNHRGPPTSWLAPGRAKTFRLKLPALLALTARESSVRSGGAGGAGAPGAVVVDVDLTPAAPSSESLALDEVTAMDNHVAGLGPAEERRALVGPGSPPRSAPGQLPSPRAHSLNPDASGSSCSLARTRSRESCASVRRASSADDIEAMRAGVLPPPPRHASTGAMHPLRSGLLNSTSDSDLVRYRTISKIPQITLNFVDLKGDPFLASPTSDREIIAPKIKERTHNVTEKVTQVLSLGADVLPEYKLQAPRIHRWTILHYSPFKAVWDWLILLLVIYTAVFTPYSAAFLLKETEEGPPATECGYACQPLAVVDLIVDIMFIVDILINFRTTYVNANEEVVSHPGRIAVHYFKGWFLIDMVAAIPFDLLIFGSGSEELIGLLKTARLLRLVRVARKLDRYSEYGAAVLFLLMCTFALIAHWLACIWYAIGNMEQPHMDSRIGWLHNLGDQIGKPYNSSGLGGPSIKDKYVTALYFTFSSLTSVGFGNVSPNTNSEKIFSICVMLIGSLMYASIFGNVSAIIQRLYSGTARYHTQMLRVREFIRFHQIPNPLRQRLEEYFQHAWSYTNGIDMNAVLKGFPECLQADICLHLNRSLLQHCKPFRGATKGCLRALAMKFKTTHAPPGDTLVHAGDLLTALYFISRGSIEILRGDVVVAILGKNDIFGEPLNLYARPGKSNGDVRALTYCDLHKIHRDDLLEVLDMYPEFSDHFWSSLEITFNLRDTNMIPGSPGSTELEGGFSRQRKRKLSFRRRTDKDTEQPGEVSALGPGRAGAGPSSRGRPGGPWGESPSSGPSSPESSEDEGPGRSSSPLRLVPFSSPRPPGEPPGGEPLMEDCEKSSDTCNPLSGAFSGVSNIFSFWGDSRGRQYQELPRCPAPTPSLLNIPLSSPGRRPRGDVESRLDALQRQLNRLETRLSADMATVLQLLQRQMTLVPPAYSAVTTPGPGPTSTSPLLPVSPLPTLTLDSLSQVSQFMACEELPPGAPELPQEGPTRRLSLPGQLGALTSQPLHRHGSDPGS

Consider `CCCCCCCCCCn1cc[n+](CCCCCCCCCC)c1C.[Cl-]` [3-Didecyl-2-methylimidazolium chloride], for which, on hERG [1] (setting [4]), the “activity outcome for hERG inhibition in the assay” value is recorded as “most active”.
The same measure, in the same setting: the entry for `O=c1[nH]cc(F)c(=O)[nH]1` [5-fluorouracil] is “inactive”.
`CCNC(=O)N1CCN(CCCC(c2ccc(F)cc2)c2ccc(F)cc2)CC1` [Amperozide hydrochloride] had an IC50 against hERG [1] (setting [5]) of 0.0916 µM.
On hERG [2] (herg fluxor ii thallium influx), `CCCCCCCCCCCC[N+](C)(C)Cc1ccccc1` [Benzyldimethyldodecylammonium chloride] showed an IC50 of 1.21 µM.
On to `CCCCCCCCCCCC[N+](C)(C)Cc1ccccc1` [Benzyldodecyldimethylammonium bromide], for which the midpoint of inhibition against hERG [2] (fluxor ii thallium influx herg), the IC50, lay at 1.25 µM.
`CO.COc1cc(Nc2c(C#N)cnc3cc(OCCCN4CCN(C)CC4)c(OC)cc23)c(Cl)cc1Cl` [Bosutinib methanoate]: the “activity outcome for hERG inhibition in the assay” value at hERG [1] (setting [4]) was “showing activity against hERG”.
As for `O=C(CCCN1CCC(O)(c2ccc(Br)cc2)CC1)c1ccc(F)cc1` [Bromperidol], the IC50 against hERG [3] is 0.249 µM. Also, at hERG [1] (setting [4]), the “activity outcome for hERG inhibition in the assay” value is given as “most active”.
For the compound `C/C=C/C(=O)Oc1ccccc1[N+](=O)[O-]` [Dinocap], at hERG [3], the IC50 is 20.3 µM. Moreover, the “activity outcome for hERG inhibition in the assay” value on hERG [1] (setting [4]) is “inhibitory activity”.
Turning to `O=c1[nH]c2ccccc2n1CCCN1CCC(n2c(=O)[nH]c3cc(Cl)ccc32)CC1` [Domperidone], the “activity outcome for hERG inhibition in the assay” value on hERG [1] (setting [4]) is “showing activity against hERG”.
As to `OC(CN1CCC(Cc2ccc(F)cc2)CC1)c1ccc(Cl)cc1` (stereo not drawn) [Eliprodil], the IC50 against hERG [1] (setting [5]) is 0.0916 µM; on hERG [1] (setting [6]), 0.09 µM. In addition, on hERG [1] (setting [4]), the “activity outcome for hERG inhibition in the assay” value is listed as “most active”.
Turning to `O=S1OCC2C(CO1)C1(Cl)C(Cl)=C(Cl)C2(Cl)C1(Cl)Cl` (stereo not drawn) [Endosulfan], the IC50 on hERG [3] is 32.1 µM. The “activity outcome for hERG inhibition in the assay” value at hERG [1] is on record as “inhibitory activity”.
For `O=C1NCN(c2ccccc2)C12CCN(CCCC(c1ccc(F)cc1)c1ccc(F)cc1)CC2` [Fluspirilene], the “activity outcome for hERG inhibition in the assay” value on hERG [1] (setting [4]) is given as “most active”.
Regarding `O=C(CCCN1CCC(O)(c2ccc(Cl)cc2)CC1)c1ccc(F)cc1` [Haloperidol], on hERG [1], the “activity outcome for hERG inhibition in the assay” value was “most active”.
Take `CC(CCc1ccccc1)NCC(O)c1ccc(O)c(C(N)=O)c1` (stereo not drawn) [Labetalol]: the IC50 against hERG [3] is 13.3 µM. In addition, the “activity outcome for hERG inhibition in the assay” value at hERG [1] is reported as “active”.
Consider `CS(=O)(=O)CCNCc1ccc(-c2ccc3ncnc(Nc4ccc(OCc5cccc(F)c5)c(Cl)c4)c3c2)o1` [Lapatinib], for which, at hERG [1] (setting [4]), the “activity outcome for hERG inhibition in the assay” value was “showing activity against hERG”.
At hERG [2] (herg fluxor ii thallium influx), `CC(=O)[O-].CC(=O)[O-].[Hg+2]` [Mercury(II) acetate] showed an IC50 of 6.16 µM.
On to `CCCCCCCC[N+](C)(CCCCCCCC)CCCCCCCC.O=S(=O)([O-])C(F)(F)F` [Methyltrioctylammonium trifluoromethanesulfonate], for which the IC50 against hERG [3] was 0.109 µM. At hERG [1], the “Aff (affinity classification)” value was found to be 1 and the “activity outcome for hERG inhibition in the assay” value is “most active”.
Regarding `O=c1[nH]c2ccccc2n1C1CCN(CCCC(c2ccc(F)cc2)c2ccc(F)cc2)CC1` [Pimozide], the “activity outcome for hERG inhibition in the assay” value at hERG [1] was “most active”.
`CC(C)(C)c1ccc(CSc2cnn(C(C)(C)C)c(=O)c2Cl)cc1` [Pyridaben]: at hERG [3], the half-inhibitory concentration (IC50) is 18.8 µM. In addition, the “activity outcome for hERG inhibition in the assay” value on hERG [1] (setting [4]) is listed as “inhibitory activity”.
In the case of `CCNc1cc2[o+]c3cc(NCC)c(C)cc3c(-c3ccccc3C(=O)OCC)c2cc1C` [Rhodamine 6G], the 50% inhibitory concentration (IC50) at hERG [2] (herg fluxor ii thallium influx) is 2.45 µM.
On hERG [1] (setting [6]), `Cc1nc2sccn2c(=O)c1CCN1CCC(=C(c2ccc(F)cc2)c2ccc(F)cc2)CC1` [Ritanserin] had an IC50 of 0.18 µM. Also, the “activity outcome for hERG inhibition in the assay” value on hERG [1] (setting [4]) is “most active”.
As to `CC(C)NCC(O)c1ccc(NS(C)(=O)=O)cc1` (stereo not drawn) [Sotalol], the “activity outcome for hERG inhibition in the assay” value on hERG [1] (setting [4]) was “active”.
Regarding `CC1(C)C2(Cl)C(Cl)C(Cl)C(Cl)(C(Cl)Cl)C1(Cl)C2Cl` (stereo not drawn) [Strobane], the IC50 against hERG [2] (herg fluxor ii thallium influx) was 41.2 µM.
Still for that read-out and setting: under `ClC1=C(Cl)C2(Cl)C3C(Cl)C(Cl)CC3C1(Cl)C2(Cl)Cl` (stereo not drawn) [Technical chlordane] stands 28.5 µM.
`C=C1C(CCl)(CCl)C2(Cl)C(Cl)C(Cl)C1(Cl)C2(Cl)Cl` (stereo not drawn) [Toxaphene] gave an IC50 at hERG [2] (fluxor ii thallium influx herg) of 35.6 µM.
For `O=C(CCCN1CCC(O)(c2cccc(C(F)(F)F)c2)CC1)c1ccc(F)cc1` [Trifluperidol], the “activity outcome for hERG inhibition in the assay” value on hERG [1] (setting [4]) is “most active”.
`c1cc[c]([Sb]([c]2ccccc2)[c]2ccccc2)cc1` [Triphenylstibine] gave an IC50 on hERG [2] (herg fluxor ii thallium influx) of 17.4 µM.
Regarding `C=CCC1=C(C)C(OC(=O)C2C(C=C(C)C)C2(C)C)CC1=O` (stereo not drawn) [allethrin], the IC50 at hERG [3] was 32.3 µM. In addition, at hERG [1], the “activity outcome for hERG inhibition in the assay” value is reported as “inhibitory activity”.
With `CCNc1ccc(C(=C2C=CC(=[N+](CC)CC)C=C2)c2ccc(N(CC)CC)cc2)c2ccccc12.[Cl-]` [basic blue 7], the IC50 against hERG [3] was 0.526 µM. The “activity outcome for hERG inhibition in the assay” value at hERG [1] (setting [4]) is “most active”.
As for `CC1(C)CNC(=NN=C(/C=C/c2ccc(C(F)(F)F)cc2)/C=C/c2ccc(C(F)(F)F)cc2)NC1` [hydramethylnon], at hERG [3], the IC50 is 0.436 µM. Further, the “activity outcome for hERG inhibition in the assay” value at hERG [1] (setting [4]) is listed as “most active”.
As to `Cl[C@H]1[C@H](Cl)[C@@H](Cl)[C@@H](Cl)[C@H](Cl)[C@H]1Cl` [lindane], half-maximal inhibition at hERG [3] (IC50) was put at 45 µM. On hERG [1], the “activity outcome for hERG inhibition in the assay” value was “inhibitory activity”.
In the case of `Clc1ccc(C(c2ccccc2Cl)C(Cl)(Cl)Cl)cc1` (stereo not drawn) [o p’-DDT], the “activity outcome for hERG inhibition in the assay” value at hERG [1] (setting [4]) is “inhibitory activity”.
Compound `C#CCC1=C(C)C(OC(=O)C2C(C=C(C)C)C2(C)C)CC1=O` (stereo not drawn) [prallethrin] gave an IC50 against hERG [3] of 46.8 µM. Further, the “activity outcome for hERG inhibition in the assay” value on hERG [1] (setting [4]) is recorded as “inhibitory activity”.
In turn, `CCCCCCCC[N+](CCCCCCCC)(CCCCCCCC)CCCCCCCC.[Br-]` [tetra-N-octylammonium bromide] had an IC50 on hERG [3] of 0.745 µM. The “activity outcome for hERG inhibition in the assay” value on hERG [1] is given as “most active”.
`CCCCCCCC[P+](CCCCCCCC)(CCCCCCCC)CCCCCCCC.[Br-]` [tetraoctylphosphonium bromide]: on hERG [3], half-maximal inhibition (IC50) required 0.402 µM. Further, the “activity outcome for hERG inhibition in the assay” value on hERG [1] (setting [4]) was “most active”.
For `CCCCCCCCCCCCCC[P+](CCCC)(CCCC)CCCC.[Cl-]` [tributyltetradecylphosphonium chloride] the same measures were 0.334 µM and “most active”.
